# Assay results: ChEMBL document CHEMBL3885881, “DrugMatrix”
# Species: Rattus norvegicus
# Experiment: DrugMatrix - Regimen: Daily Repeat
# Format: toxicity, organism-based, Sprague-Dawley
# Design: regimen Daily Repeat, gender Male, age 6-8 weeks
# Conditions: in vivo, po, route oral GAVAGE, vehicle 100 % WATER; for ABSOLUTE BASOPHIL / ABSOLUTE EOSINOPHIL / ABSOLUTE LYMPHOCYTE / ABSOLUTE MONOCYTE / ABSOLUTE SEGMENTED NEUTROPHIL / BASOPHIL / EOSINOPHIL / ERYTHROCYTE COUNT / HEMATOCRIT / HEMOGLOBIN / LEUKOCYTE COUNT / LYMPHOCYTE / MEAN CORPUSCULAR HEMOGLOBIN / MEAN CORPUSCULAR HEMOGLOBIN CONCENTRATION / MEAN CORPUSCULAR VOLUME / MONOCYTE / NEUTROPHIL / NUCLEATED RED BLOOD CELLS / PLATELET COUNT: tissue Blood; for ALANINE AMINOTRANSFERASE / ALBUMIN / ALKALINE PHOSPHATASE / ASPARTATE AMINOTRANSFERASE / BLOOD UREA NITROGEN / CARBON DIOXIDE / CHLORIDE / CHOLESTEROL / CREATINE PHOSPHOKINASE / CREATININE / GLUCOSE / LACTATE DEHYDROGENASE / LIPASE / PHOSPHORUS / POTASSIUM / SODIUM / TOTAL BILIRUBIN / TOTAL PROTEIN / URIC ACID: tissue Plasma
# [1] = 0 mg/kg, 72 h, dose level Control, time 3 day
# [2] = 0 mg/kg, 120 h, dose level Control, time 5 day
# [3] = 160 mg/kg, 72 h, dose level Low, time 3 day
compound,measurement,setting,value
N[C@@H](Cc1ccc(O)c(O)c1)C(=O)O [LEVODOPA],ABSOLUTE BASOPHIL,[1],0 CELLS/uL
same,ABSOLUTE EOSINOPHIL,[1],86.33 CELLS/uL
same,ABSOLUTE LYMPHOCYTE,[1],12090.17 CELLS/uL
same,ABSOLUTE MONOCYTE,[1],166.67 CELLS/uL
same,ABSOLUTE SEGMENTED NEUTROPHIL,[1],1090.17 CELLS/uL
same,BASOPHIL,[1],0%
same,EOSINOPHIL,[1],0.67%
same,ERYTHROCYTE COUNT,[1],5.57 x10E6/uL
same,HEMATOCRIT,[1],35.33%
same,HEMOGLOBIN,[1],13.83 G/DL
same,LEUKOCYTE COUNT,[1],13.43 x10E3/uL
same,LYMPHOCYTE,[1],89.83%
same,MEAN CORPUSCULAR HEMOGLOBIN,[1],24.88 pg
same,MEAN CORPUSCULAR HEMOGLOBIN CONCENTRATION,[1],39.15 G/DL
same,MEAN CORPUSCULAR VOLUME,[1],63.52 fL
same,MONOCYTE,[1],1.17%
same,NEUTROPHIL,[1],8.33%
same,NUCLEATED RED BLOOD CELLS,[1],0 /100WBC
same,PLATELET COUNT,[1],1181.33 x10E3/uL
same,ALANINE AMINOTRANSFERASE,[1],48.33 u/L
same,ALBUMIN,[1],4.1 G/DL
same,ALKALINE PHOSPHATASE,[1],395 u/L
same,ASPARTATE AMINOTRANSFERASE,[1],81.83 u/L
same,BLOOD UREA NITROGEN,[1],15.83 mg/dL
same,CARBON DIOXIDE,[1],24.17 mmol/L
same,CHLORIDE,[1],103.83 MEQ/L
same,CHOLESTEROL,[1],63.67 mg/dL
same,CREATINE PHOSPHOKINASE,[1],372.83 u/L
same,CREATININE,[1],0.18 mg/dL
same,GLUCOSE,[1],173.83 mg/dL
same,LACTATE DEHYDROGENASE,[1],188.33 u/L
same,LIPASE,[1],9.5 u/L
same,PHOSPHORUS,[1],11.95 mg/dL
same,POTASSIUM,[1],5.99 MEQ/L
same,SODIUM,[1],144.43 MEQ/L
same,TOTAL BILIRUBIN,[1],0.15 mg/dL
same,TOTAL PROTEIN,[1],5.95 G/DL
same,URIC ACID,[1],1.82 mg/dL
same,ABSOLUTE BASOPHIL,[2],0 CELLS/uL
same,ABSOLUTE EOSINOPHIL,[2],26.67 CELLS/uL
same,ABSOLUTE LYMPHOCYTE,[2],7583.83 CELLS/uL
same,ABSOLUTE MONOCYTE,[2],131.33 CELLS/uL
same,ABSOLUTE SEGMENTED NEUTROPHIL,[2],674.83 CELLS/uL
same,BASOPHIL,[2],0%
same,EOSINOPHIL,[2],0.33%
same,ERYTHROCYTE COUNT,[2],5.78 x10E6/uL
same,HEMATOCRIT,[2],36.48%
same,HEMOGLOBIN,[2],14.03 G/DL
same,LEUKOCYTE COUNT,[2],8.42 x10E3/uL
same,LYMPHOCYTE,[2],89.83%
same,MEAN CORPUSCULAR HEMOGLOBIN,[2],24.3 pg
same,MEAN CORPUSCULAR HEMOGLOBIN CONCENTRATION,[2],38.52 G/DL
same,MEAN CORPUSCULAR VOLUME,[2],63.15 fL
same,MONOCYTE,[2],1.67%
same,NEUTROPHIL,[2],8.17%
same,NUCLEATED RED BLOOD CELLS,[2],0 /100WBC
same,PLATELET COUNT,[2],1186.67 x10E3/uL
same,ALANINE AMINOTRANSFERASE,[2],50.17 u/L
same,ALBUMIN,[2],4.07 G/DL
same,ALKALINE PHOSPHATASE,[2],367.5 u/L
same,ASPARTATE AMINOTRANSFERASE,[2],81.67 u/L
same,BLOOD UREA NITROGEN,[2],16.17 mg/dL
same,CARBON DIOXIDE,[2],32.33 mmol/L
same,CHLORIDE,[2],101.5 MEQ/L
same,CHOLESTEROL,[2],65.33 mg/dL
same,CREATINE PHOSPHOKINASE,[2],255.33 u/L
same,CREATININE,[2],0.17 mg/dL
same,GLUCOSE,[2],139.33 mg/dL
same,LACTATE DEHYDROGENASE,[2],95 u/L
same,LIPASE,[2],10.5 u/L
same,PHOSPHORUS,[2],10.38 mg/dL
same,POTASSIUM,[2],6.11 MEQ/L
same,SODIUM,[2],145.55 MEQ/L
same,TOTAL BILIRUBIN,[2],0.17 mg/dL
same,TOTAL PROTEIN,[2],5.98 G/DL
same,URIC ACID,[2],0.93 mg/dL
same,ABSOLUTE BASOPHIL,[3],0 CELLS/uL
same,ABSOLUTE EOSINOPHIL,[3],48 CELLS/uL
same,ABSOLUTE LYMPHOCYTE,[3],13173.67 CELLS/uL
same,ABSOLUTE MONOCYTE,[3],48 CELLS/uL
same,ABSOLUTE SEGMENTED NEUTROPHIL,[3],2130.33 CELLS/uL
same,BASOPHIL,[3],0%
same,EOSINOPHIL,[3],0.33%
same,ERYTHROCYTE COUNT,[3],5.35 x10E6/uL
same,HEMATOCRIT,[3],34.57%
same,HEMOGLOBIN,[3],13.5 G/DL
same,LEUKOCYTE COUNT,[3],15.4 x10E3/uL
same,LYMPHOCYTE,[3],85.67%
same,MEAN CORPUSCULAR HEMOGLOBIN,[3],25.23 pg
same,MEAN CORPUSCULAR HEMOGLOBIN CONCENTRATION,[3],39.07 G/DL
same,MEAN CORPUSCULAR VOLUME,[3],64.63 fL
same,MONOCYTE,[3],0.33%
same,NEUTROPHIL,[3],13.67%
same,NUCLEATED RED BLOOD CELLS,[3],0 /100WBC
same,PLATELET COUNT,[3],1267 x10E3/uL
same,ALANINE AMINOTRANSFERASE,[3],43.67 u/L
same,ALBUMIN,[3],4 G/DL
same,ALKALINE PHOSPHATASE,[3],349.67 u/L
same,ASPARTATE AMINOTRANSFERASE,[3],93.67 u/L
same,BLOOD UREA NITROGEN,[3],15.67 mg/dL
same,CARBON DIOXIDE,[3],22 mmol/L
same,CHLORIDE,[3],103.33 MEQ/L
same,CHOLESTEROL,[3],61 mg/dL
same,CREATINE PHOSPHOKINASE,[3],665.33 u/L
same,CREATININE,[3],0.14 mg/dL
same,GLUCOSE,[3],158.33 mg/dL
same,LACTATE DEHYDROGENASE,[3],401 u/L
same,LIPASE,[3],8.67 u/L
same,PHOSPHORUS,[3],12.63 mg/dL
same,POTASSIUM,[3],5.77 MEQ/L
same,SODIUM,[3],144.43 MEQ/L
same,TOTAL BILIRUBIN,[3],0.2 mg/dL
same,TOTAL PROTEIN,[3],5.73 G/DL
same,URIC ACID,[3],1.87 mg/dL
